Laboratory results taken from US8470968B2, “SPARC-derived tumor rejection antigenic peptides and medicaments comprising the same” (Onco Therapy Science, Inc., priority 2006, dated 2013).
Ends that are not written are not given here.

How the values were obtained:
Assay type in all cases: cell-based, mouse
Meth A cell line = experiment: Cr-release assay of peptide-induced killer T cells on Meth A cells; conditions: spontaneously expressing SPARC, 4 hours co-culture
Procedure: (§1) Bone marrow-derived dendritic cells (BM-DC) were induced from bone marrow cells derived from BALBc bone marrow by using GM-CSF as described previously by us (Nakatsura, T et al., Clin Cancer Res 10, 8630-8640, 2004). Thus the obtained BM-DC were cultured with a mixture of the 4 types of peptides selected as described above at a concentration of 10 μM for 2 hours, and the peptide-pulsed BM-DC (5×10^5 cells) were then intraperitoneally administered to each mouse. After an interval of 1 week, the same peptide-pulsed BM-DC were administered to the mouse twice, so that the mouse was strongly immunized. Thereafter, the spleen cells of the mouse were recovered and induction of killer T cells was evaluated. In order to strictly analyze induction of killer T cells derived from CD8^+ T cells, after collection of the spleen, CD4^+ T cells were eliminated from the collected spleen cells, using MACS beads, and the remaining cells were then used for analysis.
(§2) The following protocols were used for generation and characterization of SPARC-specific killer T cells (The day of recovering the spleen cells from the immunized mouse was defined as Day 0.) • Day-21 (1) GM-CSF was added to the bone marrow cells of a BALB/c mouse, so as to start induction of bone marrow-derived dendritic cells (hereinafter referred to as BM-DC). • Day-14 (2) A mixture of the 4 types of SPARC peptides was added to the induced BM-DC, and 2 hours later, 5×10^5 cells were intraperitoneally administered to each mouse. • Steps (1) and (2) were repeated twice every other week. • Day 0 The spleen cells of the immunized BALB/c mouse were recovered. The cells were co-cultured with BM-DC prepulsed with each SPARC peptide for 2 hours. […]
(§3) The cytotoxic activity of the induced SPARC-specific killer T cells on tumor cells was analyzed as follows. […] Thereafter, a culture supernatant was recovered, and the amount of radioactive Cr released from dead cells was quantified, so that cytotoxic activity was detected.

BALB/3T3 cell line = experiment: Cr-release assay of peptide-induced killer T cells on BALB/3T3 cells; conditions: BALB/3T3, spontaneously expressing SPARC; 4 hours co-culture
Procedure: as §1, §2, §3

[1] = tested on: T2K^d cells loaded with SPARC K^d peptide; experiment: Cr-release assay of peptide-induced killer T cells on peptide-loaded T2K^d cells; conditions: T2K^d cells loaded with the SPARC K^d peptide; 4 hours co-culture; CTL from BM-DC-immunized BALB/c mice
Procedure: as §1, §2, §3

Measured: Cytotoxicity of induced killer T cells (Cr release)

EFPLRMRDWL [SPARC- K^d-3, EFPLRMRDWL]
cytotoxicity was observed: all assays above

DYIGPCKYI [SPARC- K^d-1, DYIGPCKYI]
cytotoxicity was observed: all assays above

MYIFPVHWQF [SPARC- K^d-4, MYIFPVHWQF]
cytotoxicity was observed: all assays above
